# Measurements published in US11761045B2, “Splice variants associated with neomorphic SF3B1 mutants” (Eisai R&D Management Co., Ltd., priority 2015, dated 2023).
# Legend:
# Nalm-6 SF3B1^K700E cells = assay: Splice variant levels in Nalm-6 isogenic cells by RNA-Seq; type: cell-based, human; conditions: additional compounds, FIG. 19
# Method: (§1) To investigate the broader activity of E7107 on normal and aberrant splicing, RNA from Nalm-6 isogenic cells treated for two and six hours at 15 nM was analyzed by NanoString®. […] Normal and aberrant splicing in the isogenic cell lines was also analyzed by RNA-Seq following treatment with one of additional compounds having formulas 1 or 2. […] For the RNA-Seq analysis, cells were washed with PBS after treatment with E7107 or other test compound, and RNA was isolated using PureLink (Life Technology) as reported in the manufacturer's manual. cDNA library preparation, sequencing and raw read filtering was performed as described in Ren, S. et al. “RNA-Seq analysis of prostate cancer in the Chinese population identifies recurrent gene fusions, cancer-associated long noncoding RNAs and aberrant alternative splicings.” Cell Res 22, 806-821, doi:10.1038/cr.2012.30 (2012).
# Nalm-6 SF3B1^K700K cells = assay: as above; type: cell-based, human; conditions: additional compounds, FIG. 19
# Method: as §1
SMILES,expression of WT-associated and MUT-associated RNA isoforms by RNA-Seq (Nalm-6 SF3B1^K700E cells),expression of WT-associated and MUT-associated RNA isoforms by RNA-Seq (Nalm-6 SF3B1^K700K cells)
C/C(=C\C=C\[C@@H](C)c1ccccn1)[C@H]1OC(=O)C[C@H](O)CC[C@@](C)(O)[C@@H](OC(=O)N2CCN(C)CC2)/C=C/[C@@H]1C [Compound 2],inhibited expression of both WT-associated and MUT-associated RNA isoforms,inhibited expression of both WT-associated and MUT-associated RNA isoforms
C/C(=C\C=C\[C@@H](C)c1ccccn1)[C@H]1OC(=O)C[C@H](O)CC[C@@](C)(O)[C@@H](OC(=O)N2CCN(C3CCCCCC3)CC2)/C=C/[C@@H]1C [Compound 1],inhibited expression of both WT-associated and MUT-associated RNA isoforms,inhibited expression of both WT-associated and MUT-associated RNA isoforms
